Experimental data reported in publication PMC7044277 (Nature Communications, 2020).
Where “and” joins values, the source holds several entries; their conditions need not be identical. Equal entries are not always repeated.

How the values were obtained:
[1] = biological target: T1, DRD4 (D4.4 variant) wild-type (Homo sapiens, UniProt P21917); assay: Radioligand competition binding, [3H]-N-methylspiperone; conditions: DRD4; [3H]-methylspiperone (0.8-1.0 nM); read-out: Ki
T1 sequence (P21917 1-419): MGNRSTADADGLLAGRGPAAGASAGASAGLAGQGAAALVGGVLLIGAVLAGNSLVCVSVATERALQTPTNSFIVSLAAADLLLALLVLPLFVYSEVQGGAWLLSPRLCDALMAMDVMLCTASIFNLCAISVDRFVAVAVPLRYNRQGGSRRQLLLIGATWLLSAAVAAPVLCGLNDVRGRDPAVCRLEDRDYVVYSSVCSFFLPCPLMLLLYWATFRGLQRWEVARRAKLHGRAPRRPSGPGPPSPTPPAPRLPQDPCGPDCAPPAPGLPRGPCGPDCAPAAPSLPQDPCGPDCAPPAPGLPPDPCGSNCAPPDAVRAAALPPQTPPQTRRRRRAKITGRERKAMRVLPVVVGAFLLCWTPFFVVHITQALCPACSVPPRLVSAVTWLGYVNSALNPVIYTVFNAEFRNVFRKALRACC

[2] = biological target: DRD3 (Homo sapiens, UniProt P35462); assay: Gαi/o-mediated cAMP inhibition (GloSensor); type: cell-based; conditions: DRD3, cAMP inhibition
DRD3, sequence (P35462 whole entry): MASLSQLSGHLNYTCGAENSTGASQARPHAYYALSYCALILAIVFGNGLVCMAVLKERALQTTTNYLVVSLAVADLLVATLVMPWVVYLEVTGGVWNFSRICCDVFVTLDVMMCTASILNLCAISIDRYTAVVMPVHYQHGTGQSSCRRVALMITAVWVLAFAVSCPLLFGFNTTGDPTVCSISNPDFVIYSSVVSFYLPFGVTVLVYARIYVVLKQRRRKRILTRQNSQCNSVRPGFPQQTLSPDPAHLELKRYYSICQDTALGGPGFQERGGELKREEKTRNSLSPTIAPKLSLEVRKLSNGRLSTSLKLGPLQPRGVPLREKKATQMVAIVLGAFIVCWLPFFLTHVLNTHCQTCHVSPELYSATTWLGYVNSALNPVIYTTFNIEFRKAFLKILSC

[3] = biological target: T2, DRD2 S1935.42G (Homo sapiens, UniProt P14416, S193G); assay: Gαi/o-mediated cAMP inhibition (GloSensor), mutant; type: cell-based; conditions: DRD2 Ser5.42Gly; G-protein assay
T2 construct: expressed in transfected cells; host or cells: HEK293T (ATCC CRL-11268)
T2 sequence (P14416 whole entry S193G): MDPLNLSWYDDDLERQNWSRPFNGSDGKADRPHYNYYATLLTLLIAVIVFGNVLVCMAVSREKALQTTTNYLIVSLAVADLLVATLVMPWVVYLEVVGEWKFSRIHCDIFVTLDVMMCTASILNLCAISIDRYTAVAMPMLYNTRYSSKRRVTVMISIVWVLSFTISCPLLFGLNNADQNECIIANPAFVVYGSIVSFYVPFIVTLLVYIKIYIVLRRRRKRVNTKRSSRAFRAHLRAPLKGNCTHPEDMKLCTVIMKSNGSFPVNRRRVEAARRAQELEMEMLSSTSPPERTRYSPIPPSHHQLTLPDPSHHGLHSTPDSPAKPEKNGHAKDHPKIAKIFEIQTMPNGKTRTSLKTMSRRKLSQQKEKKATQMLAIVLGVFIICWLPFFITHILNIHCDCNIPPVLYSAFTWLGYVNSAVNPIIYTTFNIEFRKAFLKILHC

[4] = biological target: DRD1 (Homo sapiens, UniProt P21728); assay: β-arrestin2 recruitment (Tango); type: cell-based; conditions: agonist mode
DRD1, sequence (P21728 whole entry): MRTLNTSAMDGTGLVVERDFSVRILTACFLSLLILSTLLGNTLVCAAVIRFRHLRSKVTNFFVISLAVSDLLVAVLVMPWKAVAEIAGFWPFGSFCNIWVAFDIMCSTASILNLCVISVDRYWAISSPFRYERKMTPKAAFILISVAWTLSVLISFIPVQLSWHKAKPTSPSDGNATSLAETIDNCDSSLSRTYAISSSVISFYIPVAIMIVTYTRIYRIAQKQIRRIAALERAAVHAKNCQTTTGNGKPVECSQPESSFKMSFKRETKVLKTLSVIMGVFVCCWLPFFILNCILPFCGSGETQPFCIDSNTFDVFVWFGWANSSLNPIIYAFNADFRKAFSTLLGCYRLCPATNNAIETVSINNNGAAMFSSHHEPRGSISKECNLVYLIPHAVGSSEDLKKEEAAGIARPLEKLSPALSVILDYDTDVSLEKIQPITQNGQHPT

[5] = biological target: DRD5 (Homo sapiens, UniProt P21918); assay: β-arrestin2 recruitment (Tango); type: cell-based; conditions: Fig_S10e, single replicates
DRD5, sequence (P21918 whole entry): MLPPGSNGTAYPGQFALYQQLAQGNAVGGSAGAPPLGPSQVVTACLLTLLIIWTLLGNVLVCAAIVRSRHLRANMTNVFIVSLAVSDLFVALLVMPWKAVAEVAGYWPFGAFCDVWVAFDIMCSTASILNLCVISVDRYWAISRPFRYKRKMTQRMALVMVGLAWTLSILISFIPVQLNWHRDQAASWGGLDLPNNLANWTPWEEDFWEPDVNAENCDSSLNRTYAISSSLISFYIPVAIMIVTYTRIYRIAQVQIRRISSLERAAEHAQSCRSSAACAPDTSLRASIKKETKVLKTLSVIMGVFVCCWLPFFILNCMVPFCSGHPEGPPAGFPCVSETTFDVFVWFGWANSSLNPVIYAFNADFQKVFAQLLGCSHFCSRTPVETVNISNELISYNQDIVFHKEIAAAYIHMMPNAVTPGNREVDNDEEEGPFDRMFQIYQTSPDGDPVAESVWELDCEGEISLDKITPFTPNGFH

[6] = biological target: T3, 5HT1F (Homo sapiens, UniProt P30939); assay: β-arrestin2 recruitment (Tango); type: cell-based; conditions: Fig_S10j
T3 construct: expressed in transfected cells; host or cells: HTLA cells expressing TEV-fused β-arrestin2
T3 sequence (P30939 1-366): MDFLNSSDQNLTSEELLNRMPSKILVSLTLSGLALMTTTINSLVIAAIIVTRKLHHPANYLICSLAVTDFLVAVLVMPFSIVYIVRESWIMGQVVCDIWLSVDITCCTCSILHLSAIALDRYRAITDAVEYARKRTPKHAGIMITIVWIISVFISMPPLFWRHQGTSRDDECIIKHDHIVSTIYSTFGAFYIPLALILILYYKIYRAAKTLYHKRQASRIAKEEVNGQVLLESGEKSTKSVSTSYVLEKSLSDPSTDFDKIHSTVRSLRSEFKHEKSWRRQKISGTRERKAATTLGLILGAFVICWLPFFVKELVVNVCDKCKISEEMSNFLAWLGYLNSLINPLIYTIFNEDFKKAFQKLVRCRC

Q: How did the Ki [1] turn out when `CCOc1cccc2cc([C@H](C)NCC3(O)CCCCC3)oc12` [O4SE6] was run?
A: > 10 µM

Q: What about the EC50 ([2]; agonist, read-out: EC50 ± SEM) of the same molecule?
A: > 10 µM

Q: What about the “G protein agonist activity” value [2] of the same molecule?
A: no detectable agonist activity

Q: What about the “agonism after serine to glycine substitution” value [3] of the same molecule?
A: impaired

Q: What about the “Fig_S10d concentration-response source data, compound alone (replicates)” value ([4]; Log[Drug] -6.52) of the same molecule?
A: 1.081

Q: And the “Fig_S10d concentration-response source data, compound alone (replicates)” value ([4]; Log[Drug] -7)?
A: 1.077 and 2.449 and 0.7206 and 0.01093 and 0.2616 and 0.5709 and 0.4663 and -0.4785 and 0.5459

Q: What about the “Fig_S10d concentration-response source data, compound alone (replicates)” value ([4]; Log[Drug] -7.52) of the same molecule?
A: 0.3818 and 0.7249 and 2.612 and 1.107 and 0.1296 and 1.638 and 0.2406 and 0.3904 and 0.4963

Q: What about the “Fig_S10d concentration-response source data, compound alone (replicates)” value ([4]; Log[Drug] -8) of the same molecule?
A: 4.337 and 0.3775 and 1.059 and 0.9723 and 0.606 and 0.3811 and 0.01404 and 0.5796 and 0.0103

Q: And the “Fig_S10d concentration-response source data, compound alone (replicates)” value ([4]; Log[Drug] -8.52)?
A: 1.411 and 0.7206 and 3.809 and 2.0766 and 0.164 and 0.2319 and -0.01873 and 0.09082 and 0.3165

Q: What about the “Fig_S10d concentration-response source data, compound alone (replicates)” value ([4]; Log[Drug] -9) of the same molecule?
A: -0.3131 and 1.5871 and 3.29 and -0.05311 and -0.07654 and 0.3577 and 0.09363 and 0.0515 and 0.4204

Q: What about the “Fig_S10d concentration-response source data, compound alone (replicates)” value ([4]; Log[Drug] -9.52) of the same molecule?
A: 3.9849 and 1.227 and 1.561 and 0.082 and -0.1093 and 0.5131 and -0.06273 and 0.7238 and 1.497

Q: And the “Fig_S10d concentration-response source data, compound alone (replicates)” value ([4]; Log[Drug] -10)?
A: 3.981 and 1.729 and 5.684 and -0.04842 and 0.2671 and 0.3249 and 0.426 and 0.4251 and 0.5346

Q: What about the “Fig_S10d concentration-response source data, compound alone (replicates)” value ([4]; Log[Drug] -10.52) of the same molecule?
A: 0.712 and 1.746 and 4.122 and 0.3608 and 0.264 and 0.2335 and 1.101 and -0.02996 and 0.2809

Q: And the “Fig_S10d concentration-response source data, compound alone (replicates)” value ([4]; Log[Drug] -11)?
A: 2.269 and 1.742 and 3.972 and 0.1742 and 0.3296 and 0.01406 and 0.6835 and 1.257 and -0.2856

Q: And the “Fig_S10d concentration-response source data, compound alone (replicates)” value ([4]; Log[Drug] -11.52)?
A: 0.3861 and 1.068 and 2.775 and -0.2327 and -0.01484 and 0.1414 and 0.7734 and -0.7734 and -0.2032

Q: What about the “Fig_S10d concentration-response source data, compound alone (replicates)” value ([4]; Log[Drug] -12) of the same molecule?
A: 1.754 and 0.5705 and -0.2917 and 0.1156 and 0.2702 and 0.1429 and -0.6489 and -0.1919 and -0.08146

Q: What about the “β-arrestin2 recruitment response, agonist mode (normalized)” value ([5]; Log[Drug] -6.52) of the same molecule?
A: -0.08982

Q: And the “β-arrestin2 recruitment response, agonist mode (normalized)” value ([5]; Log[Drug] -7)?
A: -2.193 and 0.1162 and 2.002 and 1.631 and 1.978 and 0.5459 and 0.4001 and 1.786 and 0.382

Q: What about the “β-arrestin2 recruitment response, agonist mode (normalized)” value ([5]; Log[Drug] -7.52) of the same molecule?
A: -0.08982 and 3.931 and 2.6523 and 1.599 and 1.463 and 1.719 and -0.1199 and 3.905 and 0.3346

Q: What about the “β-arrestin2 recruitment response, agonist mode (normalized)” value ([5]; Log[Drug] -8) of the same molecule?
A: -0.07925 and -1.147 and -0.7291 and 1.435 and 1.941 and 1.528 and 1.952 and 2.3308 and 0.6078

Q: What about the “β-arrestin2 recruitment response, agonist mode (normalized)” value ([5]; Log[Drug] -8.52) of the same molecule?
A: -0.1004 (2×) and 1.601 and 1.441 and 1.882 and 1.748 and 1.175 and 1.334 and 1.6784

Q: What about the “β-arrestin2 recruitment response, agonist mode (normalized)” value ([5]; Log[Drug] -9) of the same molecule?
A: 3.899 and 5.394 and 1.786 and 1.099 and 0.04193 and 2.45 and 0.1533 and 0.5646 and 0.6189

Q: And the “β-arrestin2 recruitment response, agonist mode (normalized)” value ([5]; Log[Drug] -9.52)?
A: 2.219 and 0.0951 and 1.997 and 0.5791 and 1.124 and 2.067 and 5.639 and 0.941 and -0.06273

Q: What about the “β-arrestin2 recruitment response, agonist mode (normalized)” value ([5]; Log[Drug] -10) of the same molecule?
A: -0.7133 and 0.5389 and 5.595 and 1.6 and 2.167 and 2.288 and 0.7068 and 0.5423 and 3.676

Q: And the “β-arrestin2 recruitment response, agonist mode (normalized)” value ([5]; Log[Drug] -10.52)?
A: 0.1321 and 0.1268 and 0.9299 and 1.442 and 0.235 and 1.403 and 0.9967 and 3.2411 and 1.093

Q: And the “β-arrestin2 recruitment response, agonist mode (normalized)” value ([5]; Log[Drug] -11)?
A: 0.1268 and 0.1004 and 7.307 and 0.5831 and 0.6598 and 1.285 and 1.949 and 0.03067 and 2.569

Q: What about the “β-arrestin2 recruitment response, agonist mode (normalized)” value ([5]; Log[Drug] -11.52) of the same molecule?
A: 3.508 and 1.358 and 1.781 and 0.8196 and 0.1076 and 1.003 and 0.8127 and 3.51 and 1.499

Q: What about the “β-arrestin2 recruitment response, agonist mode (normalized)” value ([5]; Log[Drug] -12) of the same molecule?
A: -0.3064 and 5.8435 and 1.717 and 0.4312 and 3.455 and 0.3038 and 0.3541 and 3.032 and 0.3527

Q: And the “β-arrestin2 recruitment response, agonist mode (single replicate values)” value ([6]; Log[Drug] -8)?
A: 1.302 and -0.3873 and 2.074 and -2.101 and -1.406 and -2.308 and -1.812 and -0.8607 and -0.04463

Q: And the “β-arrestin2 recruitment response, agonist mode (single replicate values)” value ([6]; Log[Drug] -8.52)?
A: 0.304 and 0.5074 and 1.87 and 1.981 and -1.055 and -1.27 and -1.358 and -1.238 and -0.4845

Q: What about the “β-arrestin2 recruitment response, agonist mode (single replicate values)” value ([6]; Log[Drug] -9) of the same molecule?
A: 0.9904 and 0.706 and 0.885 and 0.6945 and 9.325 and -1.862 and -2.066 and -0.6583 and 0.2247

Q: What about the “β-arrestin2 recruitment response, agonist mode (single replicate values)” value ([6]; Log[Drug] -9.52) of the same molecule?
A: 3.047 and -0.8801 and 2.567 and 4.29 and 2.342 and -1.433 and -1.621 and -2.0051 and -0.408

Q: What about the “β-arrestin2 recruitment response, agonist mode (single replicate values)” value ([6]; Log[Drug] -10) of the same molecule?
A: 4.819 and -0.0956 and 1.856 and -1.573 and -2.24 and -0.1941 and -0.1562 and -0.3459 and -1.4329

Q: And the “β-arrestin2 recruitment response, agonist mode (single replicate values)” value ([6]; Log[Drug] -10.52)?
A: 0.4927 and 0.6104 and 0.5001 and 1.318 and -2.635 and -1.961 and -1.313 and -0.102 and -0.1036

Q: And the “β-arrestin2 recruitment response, agonist mode (single replicate values)” value ([6]; Log[Drug] -11)?
A: 1.294 and -0.1888 and 1.488 and -1.416 and -3.18 and -0.3234 and -0.2837 and 1.1189 and -0.7348

Q: And the “β-arrestin2 recruitment response, agonist mode (single replicate values)” value ([6]; Log[Drug] -11.52)?
A: 2.172 and 1.385 and 0.6864 and -1.406 and -1.13 and -0.05788 and -1.691 and -2.064 and -2.201

Q: What about the “β-arrestin2 recruitment response, agonist mode (single replicate values)” value ([6]; Log[Drug] -12) of the same molecule?
A: 0.3211 and 1.218 and -0.05883 and -2.747 and -2.758 and -0.03745 and -0.9037 and -1.7453 and 2.037
